{"source": "patent US12642794B2", "about": "“Dose regimens for use of LY3154207 in the treatment of dopaminergic CNS disorders” (Eli Lilly and Company, priority 2018, dated 2026)", "assay_type_in_all_cases": "in vivo, human", "key": {"[1]": {"assay": "HBEA plasma pharmacokinetics after single doses", "text": "HBEA is a single ascending dose study of a D1 receptor positive allosteric modulator LY3154207 in healthy volunteers. Study HBEA aims to determine the safety, tolerability, and peripheral and central pharmacokinetics (PK) of single ascending doses of LY3154207 in healthy subjects. Study HBEB aims to evaluate the effect of single-dose LY3154207 on sleep latency in sleep-deprived healthy male subjects as measured by a multiple sleep latency test (MSLT). HBEA was a Phase 1, 2-part, randomized, double-blind, placebo-controlled study in healthy males or females. Part A has a 3-period crossover design with 2 alternating, single-dose escalating cohorts, and subjects were randomized to LY3154207 (n=6) or placebo (n=3) in each cohort in each dosing period. Part B has a single-period, single-dose, 2-cohort design with cerebrospinal fluid (CSF) sampling, and subjects were randomized to LY3154207 (n=8) or placebo (n=4) in each cohort.\nThis is a phase 1, SAD, crossover design of LY3154207 in healthy subjects conducted in 2 alternating cohorts with dose escalation. Subjects are dosed at 25 mg, 75 mg, 100 mg, 150 mg and 200 mg or placebo. Safety parameters assessed include adverse events (AEs), safety laboratories, vital signs, ambulatory blood pressure monitoring (ABPM) and electrocardiogram (ECG). Subjects provide blood samples after dosing to measure plasma concentrations of LY3154207 for assessment of PK.\nHBEA Part B is a study of Cerebrospinal fluid (CSF) and plasma pharmacokinetic (PK) profile following a single dose of LY3154207 in healthy volunteers. The objective of the study is to determine the CSF and plasma PK profile of LY3154207 in a single dose study m healthy volunteers. This study consisted of 2 cohorts in a single-dose, single-period, placebo-controlled, randomized, double-blind, parallel-group study. Subjects were randomized to 25 mg and 75 mg and underwent serial blood and CSF sampling at 2 hours pre-dose and 24 hours post-dose to measure concentrations of LY3154207. Twenty-four subjects enrolled and all completed the study. […] Concentrations of LY3154207 in CSF were detectable up to 8 h after a dose of 25 mg and up to 24 hours after a dose of 75 mg. At each dose about 1% of the total LY3154207 exposure in plasma was available in CSF. At 25 mg and 75 mg, central penetration of LY3154207 was confirmed by measurement of LY3154207 in CSF supporting its use according to the dosing regimens of the present invention in dopaminergic CNS disorders."}, "healthy volunteers": {"test_system": "healthy volunteers", "assay": "HBEC cognition tests: Digit Symbol Substitution Test (DSST), Hopkins Verbal Learning Test (HVLT)", "settings": "15 mg"}, "participants with PD": {"test_system": "participants with PD", "assay": "HBEC Part B multiple dose study: TEAEs, vital signs, tolerability", "description": "FIG. 3: Design of the study HBEC, a multiple ascending dose study of LY3154207, a randomized, double-blind, placebo-controlled, multiple ascending dose, parallel-group study, of healthy subjects (Part A) and participants with PD (Part B) who received once-daily doses of LY3154207 (15, 30, 75, or 150 mg in Part A and up to 75 mg in Part B) or placebo for 14 days. aEach ascending dose cohort commenced only after review of the safety data to at least Day 7 from the previous cohort. bParticipants with PD in Cohort 6 received titrated doses to determine the effect of this dosing schedule (i.e., Days 1-3:15 mg: Days 4-6:30 mg; and Days 7-14:75 mg) on cardiovascular effects. Note: All cohorts were dosed for 14 days. CRU=clinical research unit: LY=LY3154207; PBO=placebo: PD=Parkinson's disease: R=randomized.\n(§1) In this randomized, double-blind, placebo-controlled, multiple ascending dose, parallel-group study, HBEC, healthy subjects (Part A) and participants with PD (Part B) received once-daily doses of LY3154207 (15, 30, 75, or 150 mg in Part A and up to 75 mg in Part B) or placebo for 14 days, as illustrated in FIG. 3.\n(§2) Study outcomes included 24-hour ambulatory blood pressure monitoring (ABPM), treatment-emergent adverse events (TEAEs), and PK assessments in both healthy subjects and participants with PD, as well as Movement Disorder Society-United Parkinson's Disease Rating Scale (MDS-UPDRS) assessments to evaluate the impact of LY3154207 on motor function in participants with PD. The objective was to explore the safety, tolerability, and pharmacokinetics (PK) of multiple oral daily dosing of LY3154207 in healthy subjects (Part A) and in participants with PD (Part B)."}, "[2]": {"assay": "HBEC Part A pharmacokinetics, healthy subjects", "settings": "for CLss/F / RAAUC(0-24) (accumulation ratio Day 14:Day 1) / RACmax (accumulation ratio Day 14:Day 1) / Cmax / AUC(0-t) / CL renal: geometric mean; for Cmax / AUC(0-t) / Tmax / CL renal: human, in vivo, oral; for AUC(0-t): read-out: AUC(0-24); for Tmax: read-out: tmax, median; for CL renal: read-out: CLr (renal clearance) (converted)", "description": "as §1, §2"}, "[3]": {"settings": "participants with PD receiving LY3154207"}, "[4]": {"settings": "participants with PD, LY 75 mg Titration (Days 1-3: 15 mg; Days 4-6: 30 mg; Days 7-14: 75 mg) (N = 8)"}, "[5]": {"settings": "participants with PD, LY 75 mg once daily for 14 days (N = 9)"}}, "note": "Entries after “also recorded” stand apart in the source; their conditions may differ. Read-outs that look alike come from different tables or passages of the source.", "data": [{"smiles": "C[C@H]1c2cccc(CCC(C)(C)O)c2C[C@H](CO)N1C(=O)Cc1c(Cl)cccc1Cl", "note": "[LY3154207]", "values": [{"measurement": "apparent clearance (CL/F)", "setting": "[1]; across doses", "result": "19 to 25", "unit": "L/h"}, {"measurement": "Tmax", "setting": "[1]; both sexes, human, plasma, single doses, read-out: median tmax", "result": "2 to 3", "unit": "h"}, {"measurement": "half-life", "setting": "[1]; both sexes, human, plasma, single doses, read-out: terminal half-life (t1/2) (converted)", "result": "~12", "unit": "h"}, {"measurement": "renal elimination", "setting": "[1]; in vivo", "result": "negligible renal elimination"}, {"measurement": "linearity of PK", "setting": "[1]; plasma, 25-200 mg", "result": "linear PK profile; also recorded: linear plasma PK"}, {"measurement": "dose proportionality of Cmax and AUC", "setting": "[1]; plasma, 25 to 200 mg", "result": "proportional with dose; also recorded: increased in proportion to LY3154207 dose"}, {"measurement": "administered dose excreted in urine", "setting": "[1]; single doses", "result": 0.02, "unit": "%"}, {"measurement": "Hopkins Verbal Learning Test (HVLT), improvement from baseline relative to other arms", "setting": "healthy volunteers", "result": "largest average improvement from baseline"}, {"measurement": "Digit Symbol Substitution Test (DSST), change from baseline relative to other arms", "setting": "healthy volunteers; both post dose time points", "result": "highest average change from baseline; also recorded: trend for better cognitive effects"}, {"measurement": "severe or serious TEAEs", "setting": "participants with PD; participants with PD", "result": "no severe or serious TEAEs"}, {"measurement": "headache, treatment-related AE", "setting": "participants with PD; [3]", "result": 1, "unit": "n"}, {"measurement": "hypoesthesia, treatment-related AE", "setting": "participants with PD; [3]", "result": 1, "unit": "n"}, {"measurement": "upper abdominal pain, treatment-related AE", "setting": "participants with PD; [3]", "result": 1, "unit": "n"}, {"measurement": "visual hallucination, treatment-related AE", "setting": "participants with PD; [3]", "result": 1, "unit": "n"}, {"measurement": "Number of TEAEs", "setting": "participants with PD; [4]", "result": 7}, {"measurement": "Number of TEAEs, Mild", "setting": "participants with PD; [4]", "result": 6}, {"measurement": "Number of TEAEs, Moderate", "setting": "participants with PD; [4]", "result": 1}, {"measurement": "Subjects with ≥1 TEAE, (%)", "setting": "participants with PD; [4]", "result": "(62.5) %"}, {"measurement": "Number of TEAEs", "setting": "participants with PD; [5]", "result": 14}, {"measurement": "Number of TEAEs, Mild", "setting": "participants with PD; [5]", "result": 13}, {"measurement": "Number of TEAEs, Moderate", "setting": "participants with PD; [5]", "result": 1}, {"measurement": "Subjects with ≥1 TEAE, (%)", "setting": "participants with PD; [5]", "result": "(66.7) %"}, {"measurement": "course of the initial increase in SBP, DBP, and pulse rate", "setting": "participants with PD; participants with PD, repeated dosing", "result": "accommodation effect was less notable"}, {"measurement": "tolerability of multiple once-daily doses", "setting": "participants with PD; up to 75 mg in participants with PD", "result": "well tolerated"}, {"measurement": "accumulation upon repeated dosing", "setting": "[2]", "result": "minimal accumulation"}, {"measurement": "CLss/F", "setting": "[2]; Day 14, LY 15 mg (N = 9)", "result": 30.5, "unit": "L/h"}, {"measurement": "CLss/F", "setting": "[2]; Day 14, LY 30 mg (N = 9)", "result": 24.2, "unit": "L/h"}, {"measurement": "CLss/F", "setting": "[2]; Day 14, LY 75 mg (N = 9)", "result": 33.8, "unit": "L/h"}, {"measurement": "CLss/F", "setting": "[2]; Day 14, LY 150 mg (N = 9)", "result": 34.5, "unit": "L/h"}, {"measurement": "RAAUC(0-24) (accumulation ratio Day 14:Day 1)", "setting": "[2]; LY 15 mg (N = 9)", "result": 1.34}, {"measurement": "RACmax (accumulation ratio Day 14:Day 1)", "setting": "[2]; LY 15 mg (N = 9)", "result": 1.18}, {"measurement": "RAAUC(0-24) (accumulation ratio Day 14:Day 1)", "setting": "[2]; LY 30 mg (N = 9)", "result": 1.03}, {"measurement": "RACmax (accumulation ratio Day 14:Day 1)", "setting": "[2]; LY 30 mg (N = 9)", "result": 1.12}, {"measurement": "RAAUC(0-24) (accumulation ratio Day 14:Day 1)", "setting": "[2]; LY 75 mg (N = 9)", "result": 0.99}, {"measurement": "RACmax (accumulation ratio Day 14:Day 1)", "setting": "[2]; LY 75 mg (N = 9)", "result": 1.13}, {"measurement": "RAAUC(0-24) (accumulation ratio Day 14:Day 1)", "setting": "[2]; LY 150 mg (N = 9)", "result": 0.93}, {"measurement": "RACmax (accumulation ratio Day 14:Day 1)", "setting": "[2]; LY 150 mg (N = 9)", "result": 0.92}, {"measurement": "Cmax", "setting": "[2]; Day 14, LY 15 mg (N = 9)", "result": 66.2, "unit": "ng/mL"}, {"measurement": "AUC(0-t)", "setting": "[2]; Day 14, LY 15 mg (N = 9)", "result": 492, "unit": "ng·h/mL"}, {"measurement": "Tmax", "setting": "[2]; Day 14, LY 15 mg (N = 9)", "result": 2, "unit": "h"}, {"measurement": "Cmax", "setting": "[2]; Day 14, LY 30 mg (N = 9)", "result": 149, "unit": "ng/mL"}, {"measurement": "AUC(0-t)", "setting": "[2]; Day 14, LY 30 mg (N = 9)", "result": 1240, "unit": "ng·h/mL"}, {"measurement": "CL renal", "setting": "[2]; Day 14, LY 30 mg (N = 9)", "result": 0.06, "unit": "mL/min"}, {"measurement": "Tmax", "setting": "[2]; Day 14, LY 30 mg (N = 9)", "result": 2, "unit": "h"}, {"measurement": "Cmax", "setting": "[2]; Day 14, LY 75 mg (N = 9)", "result": 307, "unit": "ng/mL"}, {"measurement": "AUC(0-t)", "setting": "[2]; Day 14, LY 75 mg (N = 9)", "result": 2220, "unit": "ng·h/mL"}, {"measurement": "CL renal", "setting": "[2]; Day 14, LY 75 mg (N = 9)", "result": 0.04, "unit": "mL/min"}, {"measurement": "Tmax", "setting": "[2]; Day 14, LY 75 mg (N = 9)", "result": 2, "unit": "h"}, {"measurement": "Cmax", "setting": "[2]; Day 14, LY 150 mg (N = 9)", "result": 500, "unit": "ng/mL"}, {"measurement": "AUC(0-t)", "setting": "[2]; Day 14, LY 150 mg (N = 9)", "result": 4350, "unit": "ng·h/mL"}, {"measurement": "CL renal", "setting": "[2]; Day 14, LY 150 mg (N = 9)", "result": 0.0567, "unit": "mL/min"}, {"measurement": "Tmax", "setting": "[2]; Day 14, LY 150 mg (N = 9)", "result": 3, "unit": "h"}]}]}
